Assay results: patent publication US5696112A, “Fused heterocyclic azepines as vasopressin antagonists” (American Cyanamid Company, priority 1995, dated 1997)

How the values were obtained:
[1] = target: T1, Rat Hepatic V1 Receptors (vasopressin V1) (Rattus norvegicus, UniProt P30560); assay: Binding Assay to Rat Hepatic V1 Receptors; conditions: rat hepatic V1, [3H]vasopressin
T1 construct: Rat liver plasma membranes expressing the vasopressin V1 receptor subtypes are isolated by sucrose density gradient; from tissue; host or cells: rat liver plasma membranes
Procedure: Binding Assay to Rat Hepatic V1 Receptors
Rat liver plasma membranes expressing the vasopressin V1 receptor subtypes are isolated by sucrose density gradient according to the method described by Lesko et al., (1973). These membranes are quickly suspended in 50.0 mMTris.HCl buffer, pH 7.4, containing 0.2% bovine serum albumin (BSA) and 0.1 mM phenylmethylsulfonylfluoride (PMSF) and kept frozen at -70° C. until used in subsequent binding experiments. For binding experiments, the following is added to the wells of a ninety-six well format microtiter plate: 100 μl of 100.0 mM Tris.HCl buffer containing 10.0 mM MgCl2, 0.2% heat inactivated BSA and a mixture of protease inhibitors: leupeptin, 1.0 mg %; aprotinin, 1.0 mg %, 1,10-phenanthroline,2.0 mg %; trypsin inhibitor, 10.0 mg % and 0.1 mM PMSF, 20.0 μl of [phenylalanyl-3,4,5-^3 H]vasopressin (S.A. 45.1 Ci/mmole) at 0.8 nM, and the reaction initiated by the addition of 80 μl of tissue membranes containing 20 μg of tissue protein. The plates are kept undisturbed on the bench top at room temperature for 120 min. to reach equilibrium. Nonspecific samples are assayed in the presence of 0.1 μM of the unlabeled antagonist phenylalanylvasopressin, added in 20.0 μl volume to a final incubation volume of 200 μl. Upon completion of binding, the content of each well is filtered off, using a Brandel® cell Harvester (Gaithersburg, Md.). The radioactivity trapped on the filter disk by the ligand-receptor complex is assessed by liquid scintillation counting in a Packard LS Counter, with an efficiency of 65% for tritium. The data are analyzed for IC50 values by the LUNDON-2 program for competition (LUNDON SOFTWARE, OH).

[2] = target: T2, Rat Kidney Medullary V2 Receptors (vasopressin V2) (Rattus norvegicus, UniProt Q00788); assay: Binding Assay to Rat Kidney Medullary V2 Receptors; conditions: rat kidney medullary V2, [3H]Arg8-vasopressin
T2 construct: Medullary tissues from rat kidneys are dissected out; from tissue; host or cells: rat kidney medulla membranes
How it was run: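 Membranes from rat kidney medulla (200 μg protein) were equilibrated for 120 min on the bench with [3H]arginine8-vasopressin, added as a 0.8 nM solution, in Tris-HCl containing MgCl2, heat-inactivated BSA and protease inhibitors. Compounds were dissolved in 50% DMSO, and 1.0 μM unlabeled ligand gave nonspecific binding. Filtration, scintillation counting and competition analysis gave IC50.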

T2 sequence (Q00788 whole entry): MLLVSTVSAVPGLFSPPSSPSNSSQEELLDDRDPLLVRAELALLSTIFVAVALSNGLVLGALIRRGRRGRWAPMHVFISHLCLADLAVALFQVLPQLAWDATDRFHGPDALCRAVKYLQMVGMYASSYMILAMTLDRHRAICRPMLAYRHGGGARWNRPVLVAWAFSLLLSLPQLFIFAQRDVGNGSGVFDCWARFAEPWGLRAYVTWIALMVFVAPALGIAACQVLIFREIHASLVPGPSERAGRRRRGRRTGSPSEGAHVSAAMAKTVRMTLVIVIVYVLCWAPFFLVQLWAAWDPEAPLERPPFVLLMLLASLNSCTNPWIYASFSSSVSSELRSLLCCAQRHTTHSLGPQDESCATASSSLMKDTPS
T1 sequence (P30560 whole entry): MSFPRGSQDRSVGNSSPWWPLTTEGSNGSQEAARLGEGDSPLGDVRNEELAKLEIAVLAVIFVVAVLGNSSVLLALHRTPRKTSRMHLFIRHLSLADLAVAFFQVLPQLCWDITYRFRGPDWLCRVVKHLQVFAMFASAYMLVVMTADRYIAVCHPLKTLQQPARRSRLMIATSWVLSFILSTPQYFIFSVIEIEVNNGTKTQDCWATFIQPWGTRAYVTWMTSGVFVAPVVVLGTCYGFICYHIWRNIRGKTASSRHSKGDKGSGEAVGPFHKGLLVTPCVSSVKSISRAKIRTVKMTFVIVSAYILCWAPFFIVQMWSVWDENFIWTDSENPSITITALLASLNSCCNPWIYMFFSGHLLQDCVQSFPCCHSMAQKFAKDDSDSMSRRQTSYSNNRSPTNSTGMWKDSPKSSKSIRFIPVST

| SMILES | IC50 [1] | IC50 [2] |
| --- | --- | --- |
| O=C(Nc1ccc(C(=O)N2CCCCc3sccc32)cc1)c1cc(Cl)ccc1Cl [Example 9, N-[4-[(5,6,7,8-Tetrahydro-4H-thieno[3,2-b]azepin-4-yl)carbonyl]phenyl]2,5-dichlorobenzamide] | 0.21 µM | 0.034 µM |
| Cc1ccccc1CC(=O)Nc1ccc(C(=O)N2CCCCc3sccc32)cc1 [Example 13, N-[4-[(5,6,7,8-Tetrahydro-4H-thieno[3,2-b]azepin-4-yl)carbonyl]phenyl]2-methylbenzeneacetamide] | 0.014 µM | 0.01 µM |
| O=C(Nc1ccc(C(=O)N2CCCCc3sc(Cl)cc32)cc1)c1ccc(Cl)cc1Cl [Example 93, 2,4-Dichloro-N-[4-[(2-chloro-5,6,7,8-tetrahydro-4H-thieno[3,2-b]azepin-4-yl)carbonyl]phenyl]benzamide] | 0.23 µM | 0.019 µM |
| Cc1c(F)cccc1C(=O)Nc1ccc(C(=O)N2CCCCc3sc(Cl)cc32)cc1 [Example 94, N-[4-[(2-Chloro-5,6,7,8-tetrahydro-4H-thieno[3,2-b]azepin-4-yl)carbonyl]phenyl]-3-fluoro-2-methylbenzamide] | 0.16 µM | 0.01 µM |
| Cc1ccccc1C(=O)Nc1ccc(C(=O)N2CCCCc3sc(Cl)cc32)cc1 [Example 96, N-[4-[(2-Chloro-5,6,7,8-tetrahydro-4H-thieno[3,2-b]azepin-4-yl)carbonyl]phenyl]-2-methylbenzamide] | 0.088 µM | 0.01 µM |
| Cc1c(F)cccc1C(=O)Nc1ccc(C(=O)N2CCCC(=O)c3sccc32)cc1 [Example 155, N-[4-[(5,6,7,8-Tetrahydro-8-oxo-4H-thieno[3,2-b]azepine-4-yl)carbonyl]phenyl]-3-fluoro-2-methylbenzamide] | 7.6 µM | 0.25 µM |
| O=C(Nc1ccc(C(=O)N2CCCC(=O)c3sccc32)cc1)c1ccc(Cl)cc1Cl [Example 156, N-[4-[(5,6,7,8-Tetrahydro-8-oxo-4H-thieno[3,2-b]azepin-4-yl)carbonyl]-phenyl]-2,4-dichlorobenzamide] | 5.5 µM | 0.33 µM |
| Cc1ccccc1C(=O)Nc1ccc(C(=O)N2CCCC(=O)c3sccc32)cc1 [Example 157, N-[4-[(5,6,7,8-Tetrahydro-8-oxo-4H-thieno[3,2-b]azepin-4-yl)carbonyl]-phenyl]-2-methylbenzamide] | 3.6 µM | 0.25 µM |
